Reference: ChEMBL document CHEMBL1914292, “Synthesis and in vitro cytotoxic activity of novel pyrazolo[3,4-d]pyrimidines and related pyrazole hydrazones toward breast adenocarcinoma MCF-7 cell line” (Bioorg Med Chem, 2011)

Key:
[1] = system: MCF7; experiment: Induction of oxidative stress in human MCF7 cells assessed as glutathione peroxidase activity per mg of protein at 1/10 of IC50 after 24 hrs (reference value: 9.3 +/- 1 U); type: functional
[2] = system: MCF7; experiment: Induction of oxidative stress in human MCF7 cells assessed as superoxide dismutase activity per mg of protein at 1/10 of IC50 after 24 hrs (reference value: 40.3 +/- 4.75 U); type: functional
[3] = system: MCF7; experiment: Induction of oxidative stress in human MCF7 cells assessed as catalase activity per mg of protein at 1/10 of IC50 after 24 hrs (reference value: 7.6 +/- 0.7 U); type: functional
[4] = system: MCF7; experiment: Induction of oxidative stress in human MCF7 cells assessed as hydrogen peroxide level per mg of protein at 1/10 of IC50 after 24 hrs (reference value: 15.7 +/- 1.6 nmol); type: functional
[5] = system: MCF7; experiment: Cytotoxicity against human MCF7 cells assessed as nitric oxide level per mg protein at 1/10 of IC50 after 24 hrs (reference value: 1.9 +/- 0.16 umol); type: functional
[6] = system: MCF7; experiment: Cytotoxicity against human MCF7 cells assessed as RNA level per 10 '6 cells at 1/10 of IC50 after 24 hrs (reference value: 15.3 +/- 1.6 ug); type: functional
[7] = system: MCF7; experiment: Cytotoxicity against human MCF7 cells assessed as DNA level per 10 '6 cells at 1/10 of IC50 after 24 hrs (reference value: 8.5 +/- 0.8 ug); type: functional
[8] = system: MCF7; experiment: Induction of oxidative stress in human MCF7 cells assessed as GSH level per mg of protein at 1/10 of IC50 after 24 hrs (reference value: 40 +/- 5 nmol); type: functional
[9] = system: MCF7; experiment: Cytotoxicity against human MCF7 cells assessed as protein level per 10 '6 cells at 1/10 of IC50 after 24 hrs (reference value: 110.5 +/- 12.3 ug); type: functional
[10] = system: MCF7; experiment: Cytotoxicity against human MCF7 cells after 48 hrs by SRB colorimetric assay; type: functional, cell-based; conditions: MCF7, 48 h

Row | SMILES | Activity [1] [U] | Activity [2] [U] | Activity [3] [U] | Activity [4] [nmol] | Activity [5] [µmol] | Activity [6] [µg] | Activity [7] [µg] | Activity [8] [nmol] | Activity [9] [µg] | IC50 [10] [µM]
1 | COc1ccc(/C=N/n2c(C)nc3c(cnn3-c3ccc(Cl)cc3)c2=O)cc1 | 8 | 50 | 7.4 | 24.8 | 2.9 | 12 | 7 | 36.3 | 80.2 | 38.6
2 | COc1cc(/C=N/NC(=O)c2cn[nH]c2NC(C)=O)cc(OC)c1OC | 7.33 | 75.44 | 5.85 | 25.6 | 3 | 8.8 | 6.1 | 30.11 | 85.8 | 32.1
3 | COc1ccc(/C=N/n2c(C)nc3c(cnn3S(=O)(=O)c3ccc(Cl)cc3)c2=O)cc1 | – | – | – | – | – | – | – | – | – | 41.9
4 | COc1ccc(/C=N/n2c(C)nc3c(cnn3-c3ccc(Cl)cc3)c2=O)cc1OC | – | – | – | – | – | – | – | – | – | 25
5 | CC(=O)Nc1[nH]ncc1C(=O)N/N=C/c1ccccc1 | – | – | – | – | – | – | – | – | – | 42
6 | COc1cc(/C=N/n2c(C)nc3c(cnn3-c3ccc(Cl)cc3)c2=O)ccc1O | 5.4 | 100.3 | 3.5 | 39.4 | 3.6 | 3.2 | 4.5 | 23.5 | 42.6 | 19.8
7 | COc1cc(C(=O)Nn2c(C)nc3c(cnn3S(=O)(=O)c3ccc(Cl)cc3)c2=O)cc(OC)c1OC | – | – | – | – | – | – | – | – | – | 35.8
8 | COc1ccc(/C=N/NC(=O)c2cn[nH]c2NC(C)=O)cc1OC | – | – | – | – | – | – | – | – | – | 37.1
9 | COc1cc(/C=N/n2c(C)nc3c(cnn3S(=O)(=O)c3ccc(Cl)cc3)c2=O)cc(OC)c1OC | 6.8 | 80 | 4.3 | 27.8 | 2.8 | 7.22 | 5.3 | 34.2 | 78.3 | 27.8
10 | Cc1nc2c(cnn2-c2ccc(Cl)cc2)c(=O)n1/N=C/c1ccccc1 | 6 | 95.25 | 3.82 | 30 | 3 | 5 | 5.11 | 30.4 | 55.4 | 23.1
11 | COc1ccc(/C=N/NC(=O)c2cn[nH]c2NC(C)=O)cc1 | – | – | – | – | – | – | – | – | – | 61.7
12 | Cc1nc2c(cnn2S(=O)(=O)c2ccc(Cl)cc2)c(=O)n1/N=C/c1ccccc1 | – | – | – | – | – | – | – | – | – | 22.4
13 | COc1ccc(/C=N/n2c(C)nc3c(cnn3S(=O)(=O)c3ccc(Cl)cc3)c2=O)cc1OC | – | – | – | – | – | – | – | – | – | 33.6
14 | Cc1nc2c(cnn2-c2ccccc2)c(=O)n1-c1cnc2ccccc2c1 | – | – | – | – | – | – | – | – | – | 1.53
15 | COc1cc(/C=N/n2c(C)nc3c(cnn3-c3ccc(Cl)cc3)c2=O)cc(OC)c1OC | 4.85 | 110 | 2.2 | 53.3 | 4.4 | 2.6 | 3 | 17.8 | 27.5 | 7.6
